Among the data in patent US11427586B2, “1,2,4-oxadiazole derivatives as liver X receptor agonists” (NOVARTIS AG, priority 2019, dated 2022) are Emax and EC50 values, retold here.

The subject of one assay is SCD1. As to the kind of experiment: Measurement of SCD1 expression in SZ95-SCD1-HiBit cells (HiBiT assay). It is filed as cell-based. The note with it: Homo sapiens, 48 h; for EC50: SCD1 protein production, luminescence, initial dilution 1:3 in DMSO, read-out: HiBit EC50.
The next assay concerns SZ95 sebocytes. As to the kind of experiment: Sentinel Lipid Assay (SLA), desaturation index in SZ95 sebocytes. It is filed as cell-based. Conditions: Homo sapiens, 72 h; for EC50: desaturation index, lowest dose used 4.6 nM, read-out: SLA EC50. Summed up:
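SZ95 human sebocytes on fibronectin-coated plates, dosed 72 h at 37 °C with 1:3 dilutions from 10 μM; lipids extracted with deuterated triglyceride internal standards and quantified by LC-MS/MS (MRM) as 11 sentinel lipids. Desaturation index from elastic-net coefficients, normalized to DMSO; Amax relative to a reference LXR agonist.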

Setting [1] is: normalized Amax based on the reference compound Amax of 100%, read-out: HiBit Normalized Amax.
Where [2] appears, read: SZ95-SCD1-HiBit cells, compared to reference compound, read-out: HiBit Amax.
Where [3] appears, read: normalized Amax based on the reference compound Amax of 100%, read-out: SLA Normalized Amax.
The mark [4] stands for this setting: SZ95 cells, compared to reference compound, read-out: SLA Amax.

Read-outs that look alike come from different tables or passages of the source. Where only a bound is given, the exact number is not on record here.

For the compound `CC(C)CS(=O)(=O)c1ccccc1Oc1ccc(-c2noc(CN3C(=O)CN(CCN4CCOCC4)C3=O)n2)cc1C(F)(F)F` [Compound 44, 3-((3-(4-(2-(isobutylsulfonyl)phenoxy)-3-(trifluoromethyl)phenyl)-1,2,4-oxadiazol-5-yl)methyl)-1-(2-morpholinoethyl)imidazolidine-2,4-dione], the Emax with SCD1 (setting [1]) was 77%; in the assay on SCD1 (setting [2]), 73.2%; with SZ95 sebocytes (setting [3]), 86.4%; in the assay with SZ95 sebocytes (setting [4]), 82.9%. Also, the results for the EC50 with SCD1 (SZ95-SCD1-HiBit cells) and in the assay on SZ95 sebocytes (SZ95 cells) were 6.65 nM and at most 4.6 nM, respectively.

Regarding `CC(C)CS(=O)(=O)c1ccccc1Oc1ccc(-c2noc(CN3C(=O)N(CCN4CCOCC4)C4(CCC4)C3=O)n2)cc1C(F)(F)F` [Compound 45, 7-((3-(4-(2-(isobutylsulfonyl)phenoxy)-3-(trifluoromethyl)phenyl)-1,2,4-oxadiazol-5-yl)methyl)-5-(2-morpholinoethyl)-5,7-diazaspiro[3.4]octane-6,8-dione], the Emax in the assay with SCD1 (setting [1]) was determined as 94.2%; in the assay with SCD1 (setting [2]), 89.6%; in the assay with SZ95 sebocytes (setting [3]) it was 162%; with SZ95 sebocytes (setting [4]), 155%. Besides, the EC50 is 2.52 nM in the assay on SCD1 (SZ95-SCD1-HiBit cells) and at most 4.6 nM in the assay with SZ95 sebocytes (SZ95 cells).

As for `CC(C)CS(=O)(=O)c1ccccc1Oc1ccc(-c2noc(CN3C(=O)N(CCN4CCOCC4)C(C)(CO)C3=O)n2)cc1C(F)(F)F` (stereo not drawn) [Compound 46, 5-(hydroxymethyl)-3-((3-(4-(2-(isobutylsulfonyl)phenoxy)-3-(trifluoromethyl)phenyl)-1,2,4-oxadiazol-5-yl)methyl)-5-methyl-1-(2-morpholinoethyl)imidazolidine-2,4-dione], the Emax in the assay with SCD1 (setting [1]) amounted to 98%; with SCD1 (setting [2]), 93.2%; in the assay on SZ95 sebocytes (setting [3]), 170%; in the assay with SZ95 sebocytes (setting [4]) it was 163%. Further, the EC50 with SCD1 (SZ95-SCD1-HiBit cells) was 6.06 nM; in the assay with SZ95 sebocytes (SZ95 cells) it was at most 4.6 nM.

For the compound `O=C1N(Cc2nc(-c3ccc(Oc4ccccc4S(=O)(=O)CC(F)(F)F)c(C(F)(F)F)c3)no2)C(=O)C2(CCN(C3CCC3)CC2)N1CCN1CCOCC1` [Compound 47, 8-cyclobutyl-1-(2-morpholinoethyl)-3-((3-(4-(2-((2,2,2-trifluoroethyl)sulfonyl)phenoxy)-3-(trifluoromethyl)phenyl)-1,2,4-oxadiazol-5-yl)methyl)-1,3,8-triazaspiro[4.5]decane-2,4-dione], the Emax in the assay on SCD1 (setting [1]) amounted to 80.5%; in the assay on SCD1 (setting [2]) it was 76.6%; with SZ95 sebocytes (setting [3]) it was 147%; in the assay with SZ95 sebocytes (setting [4]), 142%. Besides, the EC50 in the assay with SCD1 (SZ95-SCD1-HiBit cells) is 0.728 nM; in the assay with SZ95 sebocytes (SZ95 cells), at most 4.6 nM.

For `O=C1N(Cc2nc(-c3ccc(Oc4ccccc4S(=O)(=O)CC(F)(F)F)c(C(F)(F)F)c3)no2)C(=O)C2(CCN(C3CCC3)CC2)N1CCC1CCOCC1` [Compound 48, 8-cyclobutyl-1-(2-(tetrahydro-2H-pyran-4-yl)ethyl)-3-((3-(4-(2-((2,2,2-trifluoroethyl)sulfonyl)phenoxy)-3-(trifluoromethyl)phenyl)-1,2,4-oxadiazol-5-yl)methyl)-1,3,8-triazaspiro[4.5]decane-2,4-dione], the Emax was determined as 93.5% in the assay on SCD1 (setting [1]), 88.9% with SCD1 (setting [2]), 125% with SZ95 sebocytes (setting [3]) and 120% in the assay with SZ95 sebocytes (setting [4]). For the same compound, the EC50 was 0.053 nM with SCD1 (SZ95-SCD1-HiBit cells) and at most 4.6 nM in the assay with SZ95 sebocytes (SZ95 cells).

Consider `CC(C)CS(=O)(=O)c1ccccc1Oc1ccc(-c2noc(CN3C(=O)N(CCN4CCOCC4)C(C)(C)C3=O)n2)cc1Cl` [Compound 49, 3-((3-(3-chloro-4-(2-(isobutylsulfonyl)phenoxy)phenyl)-1,2,4-oxadiazol-5-yl)methyl)-5,5-dimethyl-1-(2-morpholinoethyl)imidazolidine-2,4-dione], for which the Emax in the assay with SCD1 (setting [1]) was 74.6%; with SCD1 (setting [2]), 70.9%; in the assay on SZ95 sebocytes (setting [3]), 114%; in the assay on SZ95 sebocytes (setting [4]) it was 110%. Further, the EC50 stood at 11.9 nM with SCD1 (SZ95-SCD1-HiBit cells) and 40.6 nM with SZ95 sebocytes (SZ95 cells).

As for `CC(C)CS(=O)(=O)c1ccccc1Oc1ccc(-c2noc(CN3C(=O)N(CCCN4CCCC4)C(C)(C)C3=O)n2)cc1C(F)(F)F` [Compound 50b, 3-((3-(4-(2-(isobutylsulfonyl)phenoxy)-3-(trifluoromethyl)phenyl)-1,2,4-oxadiazol-5-yl)methyl)-5,5-dimethyl-1-(3-(pyrrolidin-1-yl)propyl)imidazolidine-2,4-dione], the Emax turned out to be 67.1% in the assay on SCD1 (setting [1]), 63.8% in the assay with SCD1 (setting [2]), 60.6% with SZ95 sebocytes (setting [3]) and 58.2% in the assay with SZ95 sebocytes (setting [4]). In addition, the values for the EC50 in the assay with SCD1 (SZ95-SCD1-HiBit cells) and with SZ95 sebocytes (SZ95 cells) were 29.8 nM and 23.7 nM, respectively.

As to `CC(C)CS(=O)(=O)c1ccccc1Oc1ccc(-c2noc(CN3C(=O)N(Cc4ccccn4)C(C)(C)C3=O)n2)cc1C(F)(F)F` [Compound 51, 3-((3-(4-(2-(isobutylsulfonyl)phenoxy)-3-(trifluoromethyl)phenyl)-1,2,4-oxadiazol-5-yl)methyl)-5,5-dimethyl-1-(pyridin-2-ylmethyl)imidazolidine-2,4-dione], the Emax came out at 88.7% in the assay on SCD1 (setting [1]), 84.4% in the assay with SCD1 (setting [2]), 120% in the assay on SZ95 sebocytes (setting [3]) and 116% in the assay with SZ95 sebocytes (setting [4]). The EC50 with SCD1 (SZ95-SCD1-HiBit cells) was 12.2 nM; in the assay with SZ95 sebocytes (SZ95 cells), at most 4.6 nM.

Take `CC(O)CS(=O)(=O)c1ccccc1Oc1ccc(-c2noc(CN3C(=O)N(CCN4CCOCC4)C(C)(C)C3=O)n2)cc1C(F)(F)F` (stereo not drawn) [Compound 52, 3-((3-(4-(2-((2-hydroxypropyl)sulfonyl)phenoxy)-3-(trifluoromethyl)phenyl)-1,2,4-oxadiazol-5-yl)methyl)-5,5-dimethyl-1-(2-morpholinoethyl)imidazolidine-2,4-dione]: the Emax in the assay with SCD1 (setting [1]) was found to be 79.5%; with SCD1 (setting [2]), 75.6%; in the assay with SZ95 sebocytes (setting [3]), 119%; in the assay with SZ95 sebocytes (setting [4]), 114%. The results for the EC50 with SCD1 (SZ95-SCD1-HiBit cells) and in the assay with SZ95 sebocytes (SZ95 cells) were 2.91 nM and at most 4.6 nM, respectively.

As for `CC1(C)C(=O)N(Cc2nc(-c3ccc(Oc4ccccc4S(=O)(=O)CC4CCCCO4)c(C(F)(F)F)c3)no2)C(=O)N1CCN1CCOCC1` (stereo not drawn) [Compound 53, 5,5-dimethyl-1-(2-morpholinoethyl)-3-((3-(4-(2-(((tetrahydro-2H-pyran-2-yl)methyl)sulfonyl)phenoxy)-3-(trifluoromethyl)phenyl)-1,2,4-oxadiazol-5-yl)methyl)imidazolidine-2,4-dione], the Emax with SCD1 (setting [1]) came to 101%; in the assay with SCD1 (setting [2]), 96.2%; with SZ95 sebocytes (setting [3]) it was 146%; in the assay with SZ95 sebocytes (setting [4]), 140%. The EC50 in the assay with SCD1 (SZ95-SCD1-HiBit cells) was 0.264 nM; in the assay with SZ95 sebocytes (SZ95 cells) it was at most 4.6 nM.

For `COCCS(=O)(=O)c1ccccc1Oc1ccc(-c2noc(CN3C(=O)N(CC4CC4)C(C)(C)C3=O)n2)cc1C(F)(F)F` [Compound 54, 1-(cyclopropylmethyl)-3-((3-(4-(2-((2-methoxyethyl)sulfonyl)phenoxy)-3-(trifluoromethyl)phenyl)-1,2,4-oxadiazol-5-yl)methyl)-5,5-dimethylimidazolidine-2,4-dione], the Emax in the assay on SCD1 (setting [1]) was 84.9%; in the assay on SCD1 (setting [2]), 80.7%; in the assay with SZ95 sebocytes (setting [3]), 157%; in the assay with SZ95 sebocytes (setting [4]) it was 151%. Moreover, the EC50 is 3.86 nM in the assay with SCD1 (SZ95-SCD1-HiBit cells) and at most 4.6 nM with SZ95 sebocytes (SZ95 cells).
